# Laboratory results from ChEMBL document CHEMBL2169878 (J Med Chem, 2012).
# The source made the active and inactive calls. No cut-off for these calls is given here.
# Tests used:
# [1] = system: Salmonella typhimurium; assay: Mutagenicity against Salmonella typhimurium TA98 assessed as revertants at 1 uM incubated for 90 mins followed by drug washout measured after 2 days relative to positive control; type: toxicity, organism-based; details: salmonella enterica subsp. enterica serovar typhimurium
# [2] = system: Salmonella typhimurium; assay: Mutagenicity against Salmonella typhimurium TA100 assessed as revertants at 16 uM incubated for 90 mins followed by drug washout measured after 2 days relative to positive control; type: toxicity, organism-based; details: salmonella enterica subsp. enterica serovar typhimurium
# [3] = Cytotoxicity against human HepG2 cells after 24 hrs by neutral red dye uptake assay; type: cell-based; details: read-out: TC50
# [4] = system: Salmonella typhimurium; assay: Mutagenicity against Salmonella typhimurium TA100 assessed as revertants at 2 uM incubated for 90 mins followed by drug washout measured after 2 days relative to positive control; type: toxicity, organism-based; details: salmonella enterica subsp. enterica serovar typhimurium
# [5] = system: Salmonella typhimurium; assay: Mutagenicity against Salmonella typhimurium TA98 assessed as revertants at 32 uM incubated for 90 mins followed by drug washout measured after 2 days relative to positive control; type: toxicity, organism-based; details: salmonella enterica subsp. enterica serovar typhimurium, 1.5 h
# [6] = system: Salmonella typhimurium; assay: Mutagenicity against Salmonella typhimurium TA100 assessed as revertants at 4 uM incubated for 90 mins followed by drug washout measured after 2 days relative to positive control; type: toxicity, organism-based; details: salmonella enterica subsp. enterica serovar typhimurium, 1.5 h
# [7] = system: Salmonella typhimurium; assay: Mutagenicity against Salmonella typhimurium TA98 assessed as revertants at 2 uM incubated for 90 mins followed by drug washout measured after 2 days relative to positive control; type: toxicity, organism-based; details: salmonella enterica subsp. enterica serovar typhimurium, 1.5 h
# [8] = system: Salmonella typhimurium; assay: Mutagenicity against Salmonella typhimurium TA98 assessed as revertants at 8 uM incubated for 90 mins followed by drug washout measured after 2 days relative to positive control; type: toxicity, organism-based; details: salmonella enterica subsp. enterica serovar typhimurium, 1.5 h
# [9] = system: Plasmodium falciparum; assay: Resistance ratio of IC50 for chloroquine-resistant Plasmodium falciparum K1 to IC50 for chloroquine-sensitive Plasmodium falciparum NF54; type: functional
# [10] = system: Salmonella typhimurium; assay: Mutagenicity against Salmonella typhimurium TA100 assessed as revertants at 1 uM incubated for 90 mins followed by drug washout measured after 2 days relative to positive control; type: toxicity, organism-based; details: salmonella enterica subsp. enterica serovar typhimurium, 1.5 h
# [11] = system: Salmonella typhimurium; assay: Mutagenicity against Salmonella typhimurium TA98 assessed as revertants at 16 uM incubated for 90 mins followed by drug washout measured after 2 days relative to positive control; type: toxicity, organism-based; details: salmonella enterica subsp. enterica serovar typhimurium
# [12] = system: Salmonella typhimurium; assay: Mutagenicity against Salmonella typhimurium TA100 assessed as revertants at 9 uM incubated for 90 mins followed by drug washout measured after 2 days relative to positive control; type: toxicity, organism-based; details: salmonella enterica subsp. enterica serovar typhimurium, 1.5 h
# [13] = target: T1, Chloroquine resistance transporter (Plasmodium falciparum) (UniProt Q9N623); assay: Inhibition of chloroquine-resistant Plasmodium falciparum Dd2 CRT expressed in Xenopus laevis oocyte assessed as inhibition of [3H]chloroquine uptake at 100 uM measured from 1 to 2 hrs
# T1 sequence (whole entry): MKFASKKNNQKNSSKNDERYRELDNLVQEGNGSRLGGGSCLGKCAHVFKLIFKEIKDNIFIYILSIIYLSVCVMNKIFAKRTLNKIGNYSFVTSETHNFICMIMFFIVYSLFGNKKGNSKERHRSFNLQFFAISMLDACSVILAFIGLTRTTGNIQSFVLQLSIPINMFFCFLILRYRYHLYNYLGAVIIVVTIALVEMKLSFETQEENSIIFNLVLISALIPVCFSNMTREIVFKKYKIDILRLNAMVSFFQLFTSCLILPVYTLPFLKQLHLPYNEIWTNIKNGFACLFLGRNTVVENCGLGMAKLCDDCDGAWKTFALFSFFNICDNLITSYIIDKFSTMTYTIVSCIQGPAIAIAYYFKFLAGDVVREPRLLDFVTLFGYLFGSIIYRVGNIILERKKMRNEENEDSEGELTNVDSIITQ
# [14] = system: Salmonella typhimurium; assay: Mutagenicity against Salmonella typhimurium TA100 assessed as revertants at 32 uM incubated for 90 mins followed by drug washout measured after 2 days relative to positive control; type: toxicity, organism-based; details: salmonella enterica subsp. enterica serovar typhimurium
# [15] = system: Plasmodium falciparum; assay: Resistance ratio of IC50 for chloroquine-resistant Plasmodium falciparum W2 to IC50 for chloroquine-sensitive Plasmodium falciparum D10; type: functional
# [16] = system: Salmonella typhimurium; assay: Mutagenicity against Salmonella typhimurium TA98 assessed as revertants at 4 uM incubated for 90 mins followed by drug washout measured after 2 days relative to positive control; type: toxicity, organism-based; details: salmonella enterica subsp. enterica serovar typhimurium
# [17] = Cytotoxicity against mouse NIH3T3 cells after 24 hrs by neutral red dye uptake assay; type: cell-based; details: read-out: TC50
# [18] = system: Salmonella typhimurium; assay: Mutagenicity against Salmonella typhimurium TA98 assessed as revertants at 15 uM incubated for 90 mins followed by drug washout measured after 2 days relative to positive control; type: toxicity, organism-based; details: salmonella enterica subsp. enterica serovar typhimurium
# [19] = system: Salmonella typhimurium; assay: Mutagenicity against Salmonella typhimurium TA98 assessed as revertants at 24 uM incubated for 90 mins followed by drug washout measured after 2 days relative to positive control; type: toxicity, organism-based; details: salmonella enterica subsp. enterica serovar typhimurium, 1.5 h
# [20] = system: Plasmodium berghei; assay: Antimalarial activity against Plasmodium berghei ANKA expressing GFP infected in mouse assessed as reduction in parasitemia at 30 mg/kg, po administered 24 hrs post-infection measured 48 hrs post-dosing by flow cytometric analysis; type: functional; set-up: scale not given: the % may be the effect or the level left
# [21] = system: Plasmodium falciparum; assay: Antiplasmodial activity against chloroquine-resistant Plasmodium falciparum W2 infected in human RBC after 72 hrs by parasite lactate dehydrogenase assay; type: functional, organism-based; details: W2, 72 h
# [22] = system: Salmonella typhimurium; assay: Mutagenicity against Salmonella typhimurium TA100 assessed as revertants at 24 uM incubated for 90 mins followed by drug washout measured after 2 days relative to positive control; type: toxicity, organism-based; details: salmonella enterica subsp. enterica serovar typhimurium
# [23] = system: Plasmodium berghei; assay: Antimalarial activity against Plasmodium berghei ANKA expressing GFP infected in mouse assessed as mean survival days at 100 mg/kg, po administered 24 hrs post-infection (reference value: 6 to 7 days); type: functional
# [24] = system: Salmonella typhimurium; assay: Mutagenicity against Salmonella typhimurium TA98 assessed as revertants at 80 uM incubated for 90 mins followed by drug washout measured after 2 days relative to positive control; type: toxicity, organism-based; details: salmonella enterica subsp. enterica serovar typhimurium, 1.5 h
# [25] = system: Plasmodium berghei; assay: Antimalarial activity against Plasmodium berghei ANKA expressing GFP infected in mouse assessed as reduction in parasitemia at 100 mg/kg, po administered 24 hrs post-infection measured 48 hrs post-dosing by flow cytometric analysis; type: functional; set-up: scale not given: the % may be the effect or the level left
# [26] = system: Salmonella typhimurium; assay: Mutagenicity against Salmonella typhimurium TA98 assessed as revertants at 40 uM incubated for 90 mins followed by drug washout measured after 2 days relative to positive control; type: toxicity, organism-based; details: salmonella enterica subsp. enterica serovar typhimurium
# [27] = system: Salmonella typhimurium; assay: Mutagenicity against Salmonella typhimurium TA98 assessed as revertants at 7 uM incubated for 90 mins followed by drug washout measured after 2 days relative to positive control; type: toxicity, organism-based; details: salmonella enterica subsp. enterica serovar typhimurium
# [28] = system: Salmonella typhimurium; assay: Mutagenicity against Salmonella typhimurium TA100 assessed as revertants at 40 uM incubated for 90 mins followed by drug washout measured after 2 days relative to positive control; type: toxicity, organism-based; details: salmonella enterica subsp. enterica serovar typhimurium
# [29] = system: Plasmodium berghei; assay: Antimalarial activity against Plasmodium berghei ANKA expressing GFP infected in mouse assessed as mean survival days at 30 mg/kg, po administered 24 hrs post-infection (reference value: 6 to 7 days); type: functional
# [30] = system: Salmonella typhimurium; assay: Mutagenicity against Salmonella typhimurium TA100 assessed as revertants at 7 uM incubated for 90 mins followed by drug washout measured after 2 days relative to positive control; type: toxicity, organism-based; details: salmonella enterica subsp. enterica serovar typhimurium, 1.5 h
# [31] = system: Plasmodium falciparum; assay: Antiplasmodial activity against chloroquine-sensitive Plasmodium falciparum D10 infected in human RBC after 72 hrs by parasite lactate dehydrogenase assay; type: functional, organism-based; details: D10, 72 h
# [32] = system: Plasmodium berghei; assay: Antimalarial activity against Plasmodium berghei ANKA expressing GFP infected in mouse assessed as cure from infection at 30 mg/kg, po administered 24 hrs post-infection measured on day 30; type: functional, organism-based; set-up: dose 30 mg/kg
# [33] = system: Plasmodium berghei; assay: Antimalarial activity against Plasmodium berghei ANKA expressing GFP infected in mouse assessed as cure from infection at 100 mg/kg, po administered 24 hrs post-infection measured on day 30; type: functional, organism-based; set-up: dose 100 mg/kg
# [34] = system: Salmonella typhimurium; assay: Mutagenicity against Salmonella typhimurium TA100 assessed as revertants at 80 uM incubated for 90 mins followed by drug washout measured after 2 days relative to positive control; type: toxicity, organism-based; details: salmonella enterica subsp. enterica serovar typhimurium
# [35] = system: Plasmodium falciparum; assay: Antiplasmodial activity against chloroquine-sensitive Plasmodium falciparum NF54 infected in human erythrocytes assessed as inhibition of [3H]hypoxanthine incorporation incubated for 48 hrs prior to [3H]hypoxanthine addition measured after 48 hrs by liquid scintillation counting; type: functional, organism-based
# [36] = system: Salmonella typhimurium; assay: Mutagenicity against Salmonella typhimurium TA100 assessed as revertants at 15 uM incubated for 90 mins followed by drug washout measured after 2 days relative to positive control; type: toxicity, organism-based; details: salmonella enterica subsp. enterica serovar typhimurium
# [37] = system: Salmonella typhimurium; assay: Mutagenicity against Salmonella typhimurium TA98 assessed as revertants at 61 uM incubated for 90 mins followed by drug washout measured after 2 days relative to positive control; type: toxicity, organism-based; details: salmonella enterica subsp. enterica serovar typhimurium, 1.5 h
# [38] = system: Salmonella typhimurium; assay: Mutagenicity against Salmonella typhimurium TA100 assessed as revertants at 61 uM incubated for 90 mins followed by drug washout measured after 2 days relative to positive control; type: toxicity, organism-based; details: salmonella enterica subsp. enterica serovar typhimurium
# [39] = system: Plasmodium falciparum; assay: Antiplasmodial activity against chloroquine-resistant Plasmodium falciparum K1 infected in human erythrocytes assessed as inhibition of [3H]hypoxanthine incorporation incubated for 48 hrs prior to [3H]hypoxanthine addition measured after 48 hrs by liquid scintillation counting; type: functional, organism-based
compound,measurement,setting,value
Clc1cccc(C(Nc2ccnc3cc(Cl)ccc23)c2ccc(CN3CCCC3)cc2)c1 (racemic),Activity,[1],2%
same,Activity,[2],10%
same,CC50 at 24 h,[3],31 µM
same,Activity,[4],2%
same,Activity,[5],2%
same,Activity,[6],0%
same,Activity,[7],2%
same,Activity,[8],6%
same,Ratio IC50,[9],1.3
same,Activity,[10],5%
same,Activity,[11],14%
same,Activity,[12],5%
same,inhibition,[13],70%
same,Activity,[14],2%
same,Ratio IC50,[15],1
same,Activity,[16],0%
same,CC50 at 24 h,[17],9 µM
Clc1ccc2c(NC(c3ccccc3)(c3ccc(CN4CCCC4)c(Cl)c3)c3ccc(CN4CCCC4)c(Cl)c3)ccnc2c1,Activity,[18],1%
same,Activity,[19],5%
same,Activity,[20],99.4%
same,CC50 at 24 h,[3],6.1 µM
same,IC50,[21],0.052 µM
same,Activity,[22],6%
same,MSD,[23],21.3 days
same,Activity,[24],0%
same,Activity,[25],99.3%
same,Activity,[26],3%
same,Activity,[27],1%
same,Activity,[28],4%
same,MSD,[29],7 days
same,Activity,[30],4%
same,IC50,[31],0.026 µM
same,inhibition,[13],72%
same,Activity,[32],inactive
same,Activity,[33],inactive
same,Activity,[34],0%
same,IC50,[35],0.0095 µM
same,Activity,[36],5%
same,Activity,[37],5%
same,Activity,[38],4%
same,IC50,[39],0.0084 µM
same,CC50 at 24 h,[17],15 µM
